According to US11466006B2, “Dual selective PI3 delta and gamma kinase inhibitors” (Rhizen Pharmaceuticals SA, priority 2013, dated 2022):
Read-outs that look alike come from different tables or passages of the source.

What was measured:
[1] = test system: caspase-3 activity; test: Apoptosis in leukemic cell lines (in-situ Caspase 3 kit); format: cell-based; conditions: MOLT-4, Jurkat, CCRF-CEM, Hut-78 & HuT-102; 24 hrs
Procedure: Apoptosis in leukemic cells was determined using an in-situ Caspase 3 kit (Millipore, US) as outlined below: • Seed leukemic cells—at a density of 1×10^6 cells/well in a 6 well plate • Add test compound/DMSO at desired concentrations • Incubate the plate for 24 hrs at 37° C. in 5% CO2 incubator • Collect cells in a 2 ml centrifuge tube • Add 1.6 μL of freshly prepared 5× FLICA reagent and mix cells by slightly flicking the tubes • Incubate tubes for 1 hour at 37° C. under 5% CO2 • Add 2 ml of 1× wash buffer to each tube and mix • Centrifuge cells at <400× g for 5 minutes at room temperature. • Carefully remove and discard supernatant, and gently vortex cell pellet to disrupt any cell-to-cell clumping. • Resuspend cell pellet in 300 ul of 1× wash buffer • Place 100 μL of each cell suspension into each of two wells of a black microtiter plate. Avoid creation of bubbles. • Read […] of each microwell using an excitation wavelength of 490 nm and an emission wavelength of 520 nm • Percent increase in caspase-3 activity manifested by an increase in fluorescence compared to the control blank is to be calculated.

[2] = test system: Primary CLL cells; test: Anti-cancer activity in human CLL cells (MTS cytotoxicity); format: cell-based; conditions: CLL cell, 72 h, 3 days, read-out: median EC50, cytotoxicity in CLL cells
Procedure: Primary CLL cells were enriched using Rosette-Sep B cells from Stem Cell Technology, generally giving purity of >97% of B cells/CLL cells. Cells were seeded at 2.5×10^5 per well in a 96 well with either serum free medium (SFM) or SFM+10% heat-inactivated fetal bovine serum (volume 100 microliters) in the presence of desired concentrations of the test compound and cultured for 3 days at 37° C. in a carbon dioxide incubator. Cytotoxicity was determined using the MTS assay.

[3] = biological target: T1, Pi3K β (Homo sapiens, UniProt P42338); test: Fluorescent (HTRF) determination of PI3 kinase enzyme activity, beta isoform; format: biochemical; conditions: Table 1, HTRF
T1 construct: purchased Millipore (assay kit)
Text: (§1) Phosphoinositide 3 kinases (PI3K) belong to a class of lipid kinases that play a critical role in the regulation of several key cellular processes. The PI3K are capable of phosphorylating the 3-hydroxy position of phosphoinositols thereby generating second messengers involved in downstream signalling events. The homogenous time resolved fluorescence (HTRF) assay allows detection of 3,4,5-triphosphate (PIP3) formed as a result of phosphorylation of phosphotidylinositol 4,5-biphosphate (PIP2) by PI3K isoforms such as α, β, γ or δ.
(§2) PI3K isoform activity for α, β, γ or δ was determined using a PI3K human HTRF™ Assay Kit (Millipore, Billerica, Mass.) with modifications. All incubations were carried out at room temperature. Briefly, 0.5 μl of 40× inhibitor (in 100% DMSO) or 100% DMSO were added to each well of a 384-well white plate (Greiner Bio-One, Monroe, N.C.) containing 14.5 μl 1× reaction buffer /PIP2 (10 mM MgCl2, 5 mM DTT, 1.38 μM PIP2) mix with or without enzyme, followed by 5 μl/well of 400 μM ATP and incubated for an additional 30 minutes. Reaction was terminated by adding 5 μl/well stop solution (Millipore, Billerica, Mass.). […] HRTF ratio was measured on a microplate reader (BMG Labtech., Germany) at an excitation wavelength of 337 nm and emission wavelengths of 665 and 615 nm with an integration time of 400 msec counting delay of 50 msec.

[4] = test system: Lewis rats; test: Collagen induced arthritis in Lewis rats; format: in vivo, rat
[5] = biological target: T2, Pi3K α (Homo sapiens, UniProt P42336); test: Fluorescent (HTRF) determination of PI3 kinase enzyme activity, alpha isoform; format: biochemical; conditions: Table 1, HTRF
T2 construct: purchased Millipore (assay kit)
Text: as §1, §2

[6] = test system: anti-human CD3/CD28 co-stimulated primary T-cells; test: Cytokine assay in anti-human CD3 and CD28 co-stimulated primary T-cells (ELISA); format: cell-based; conditions: T-cell, anti-human CD3-CD28 induced, 24 h, eight independent experiments
Procedure: The objective of this study was to assess the inhibitory potential of Compound A1 on cytokines produced by anti-human CD3/CD28 co-stimulated primary T-cells.
• Plates were coated with 50 μl of anti-human CD3 at a concentration of 100 ng/ml either overnight at 4° C. or for 2 h at 37° C. After incubation, plates were washed twice with sterile PBS to remove unbound antibody. • Isolated human T-cells were re-suspended to 0.625×10^6 cells per ml in 1.5 ml tubes and 1 μl of drug dilution (1000×) was added. A DMSO blank and un-induced blank were maintained. • Cells were incubated with compound at room temperature for 30 min and then added to anti-human CD3 coated wells of a 96-well plate, 240 μl each. Anti-human CD28 was added immediately, 10 μl (25×) per well. • Plate was incubated at 37° C., 5% CO2 for 24 h. • Plates were centrifuged at 4000 rpm at room temperature, supernatant was collected and stored at −20° C. • Cytokines were determined using a commercial ELISA kit with absorbance read at 450 and 570 nm.

[7] = biological target: T3, PI3K alpha (Mus musculus, UniProt P42337); test: PDGF induced Akt phosphorylation in 3T3 cells (PI3Kα selectivity); format: cell-based
T3 construct: endogenous in cells; host or cells: 3T3 fibroblasts
Procedure: The objective of this study was to determine the effect of Compound A1 on PI3Kα kinase mediated AktS473 phosphorylation in PDGF induced 3T3 fibroblasts. • 3T3 cells were treated with desired concentrations of the test compound for 15 min. 1 ml of 2× PDGF was added such that the final concentration was 20 ng/ml and incubated for 10 min. • Media was discarded and washed with 1 ml of ice-cold 1× PBS. • 250 μl of cell lysis buffer was added and incubated on ice for 30 min. • Samples were centrifuged and supernatant was collected and stored at −80° C. until analysis. • Samples were analyzed by Western Blotting using pAKT (S473) as the primary and anti-rabbit IgG-HRP as a secondary antibody. • Intensity of the bands was determined using ImageJ 1.42q (NIH, USA) and normalized to Actin (loading control). Data was plotted using GraphPad Prism (Version 5.02).

T3 sequence (P42337 whole entry): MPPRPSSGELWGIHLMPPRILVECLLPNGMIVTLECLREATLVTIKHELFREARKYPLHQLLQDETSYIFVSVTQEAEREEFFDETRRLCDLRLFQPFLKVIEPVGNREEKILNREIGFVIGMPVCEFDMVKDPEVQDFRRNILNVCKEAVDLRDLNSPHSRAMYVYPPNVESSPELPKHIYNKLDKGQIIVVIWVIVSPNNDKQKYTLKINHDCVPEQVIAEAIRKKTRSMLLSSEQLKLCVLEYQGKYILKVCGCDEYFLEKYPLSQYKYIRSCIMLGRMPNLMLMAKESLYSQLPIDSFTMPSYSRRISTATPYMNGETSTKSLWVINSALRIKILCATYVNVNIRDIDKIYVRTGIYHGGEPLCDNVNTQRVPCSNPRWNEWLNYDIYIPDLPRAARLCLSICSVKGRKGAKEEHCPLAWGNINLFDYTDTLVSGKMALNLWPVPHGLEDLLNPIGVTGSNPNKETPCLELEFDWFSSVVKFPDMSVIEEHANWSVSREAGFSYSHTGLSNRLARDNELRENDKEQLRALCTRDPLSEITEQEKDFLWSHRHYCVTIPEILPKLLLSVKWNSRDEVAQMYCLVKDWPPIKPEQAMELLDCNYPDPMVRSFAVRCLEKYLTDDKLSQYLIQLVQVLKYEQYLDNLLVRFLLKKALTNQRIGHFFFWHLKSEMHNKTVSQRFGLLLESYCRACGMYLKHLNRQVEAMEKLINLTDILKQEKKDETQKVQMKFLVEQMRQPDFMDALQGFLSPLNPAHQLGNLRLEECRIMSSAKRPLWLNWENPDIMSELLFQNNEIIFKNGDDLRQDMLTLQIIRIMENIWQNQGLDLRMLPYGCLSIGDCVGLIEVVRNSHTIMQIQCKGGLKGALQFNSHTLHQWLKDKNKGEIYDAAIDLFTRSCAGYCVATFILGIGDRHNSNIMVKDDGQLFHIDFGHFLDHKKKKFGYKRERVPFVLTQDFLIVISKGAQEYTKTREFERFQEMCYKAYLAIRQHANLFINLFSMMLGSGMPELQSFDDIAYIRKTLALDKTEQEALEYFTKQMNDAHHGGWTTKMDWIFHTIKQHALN
T3 sequence (P26450 whole entry partner): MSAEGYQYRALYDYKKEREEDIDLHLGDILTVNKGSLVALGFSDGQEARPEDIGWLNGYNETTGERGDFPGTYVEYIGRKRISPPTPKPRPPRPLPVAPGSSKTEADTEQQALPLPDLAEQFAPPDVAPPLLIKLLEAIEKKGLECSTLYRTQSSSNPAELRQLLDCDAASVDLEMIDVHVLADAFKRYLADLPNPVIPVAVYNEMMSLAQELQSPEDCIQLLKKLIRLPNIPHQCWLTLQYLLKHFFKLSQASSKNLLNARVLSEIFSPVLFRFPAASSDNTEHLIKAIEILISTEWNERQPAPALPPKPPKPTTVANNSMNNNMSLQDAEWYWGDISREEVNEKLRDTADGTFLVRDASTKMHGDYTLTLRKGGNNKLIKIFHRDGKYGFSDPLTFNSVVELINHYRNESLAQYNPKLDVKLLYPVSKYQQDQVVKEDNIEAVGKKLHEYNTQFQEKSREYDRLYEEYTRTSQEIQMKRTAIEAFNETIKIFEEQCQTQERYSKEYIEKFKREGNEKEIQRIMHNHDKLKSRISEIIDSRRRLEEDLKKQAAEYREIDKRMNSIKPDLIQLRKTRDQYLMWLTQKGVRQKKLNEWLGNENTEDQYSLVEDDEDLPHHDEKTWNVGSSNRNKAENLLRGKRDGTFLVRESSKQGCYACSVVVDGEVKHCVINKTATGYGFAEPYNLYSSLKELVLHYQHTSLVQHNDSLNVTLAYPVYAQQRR
T2 sequence (P42336 whole entry, canonical isoform): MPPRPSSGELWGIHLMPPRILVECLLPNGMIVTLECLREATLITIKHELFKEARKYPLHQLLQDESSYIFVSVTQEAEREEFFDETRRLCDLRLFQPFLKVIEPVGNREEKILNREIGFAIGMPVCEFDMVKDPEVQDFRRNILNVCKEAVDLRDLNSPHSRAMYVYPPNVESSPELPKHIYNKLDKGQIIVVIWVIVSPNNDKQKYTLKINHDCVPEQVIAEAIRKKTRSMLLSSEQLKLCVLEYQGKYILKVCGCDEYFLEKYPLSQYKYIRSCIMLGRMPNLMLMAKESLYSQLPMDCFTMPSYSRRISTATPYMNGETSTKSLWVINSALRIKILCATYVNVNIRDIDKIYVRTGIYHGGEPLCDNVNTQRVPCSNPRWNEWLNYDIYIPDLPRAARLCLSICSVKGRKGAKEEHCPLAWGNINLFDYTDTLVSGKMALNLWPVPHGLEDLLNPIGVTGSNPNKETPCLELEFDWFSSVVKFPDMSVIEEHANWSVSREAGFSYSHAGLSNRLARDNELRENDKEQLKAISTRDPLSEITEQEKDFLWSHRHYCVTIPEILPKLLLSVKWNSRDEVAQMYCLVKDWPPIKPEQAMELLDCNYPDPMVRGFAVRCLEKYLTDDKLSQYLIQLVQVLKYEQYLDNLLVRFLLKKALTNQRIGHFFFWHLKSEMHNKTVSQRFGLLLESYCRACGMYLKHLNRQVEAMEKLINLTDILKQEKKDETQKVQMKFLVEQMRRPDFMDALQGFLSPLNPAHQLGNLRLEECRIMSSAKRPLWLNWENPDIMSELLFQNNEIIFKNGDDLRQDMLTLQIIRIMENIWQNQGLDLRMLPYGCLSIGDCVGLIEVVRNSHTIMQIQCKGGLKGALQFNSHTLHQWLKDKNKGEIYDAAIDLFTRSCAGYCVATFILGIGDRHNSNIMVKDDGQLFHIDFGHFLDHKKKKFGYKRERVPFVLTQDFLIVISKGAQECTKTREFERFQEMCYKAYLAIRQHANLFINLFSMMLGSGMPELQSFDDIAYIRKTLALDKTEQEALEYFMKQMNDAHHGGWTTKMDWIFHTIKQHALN
T2 sequence (P27986 whole entry partner, canonical isoform): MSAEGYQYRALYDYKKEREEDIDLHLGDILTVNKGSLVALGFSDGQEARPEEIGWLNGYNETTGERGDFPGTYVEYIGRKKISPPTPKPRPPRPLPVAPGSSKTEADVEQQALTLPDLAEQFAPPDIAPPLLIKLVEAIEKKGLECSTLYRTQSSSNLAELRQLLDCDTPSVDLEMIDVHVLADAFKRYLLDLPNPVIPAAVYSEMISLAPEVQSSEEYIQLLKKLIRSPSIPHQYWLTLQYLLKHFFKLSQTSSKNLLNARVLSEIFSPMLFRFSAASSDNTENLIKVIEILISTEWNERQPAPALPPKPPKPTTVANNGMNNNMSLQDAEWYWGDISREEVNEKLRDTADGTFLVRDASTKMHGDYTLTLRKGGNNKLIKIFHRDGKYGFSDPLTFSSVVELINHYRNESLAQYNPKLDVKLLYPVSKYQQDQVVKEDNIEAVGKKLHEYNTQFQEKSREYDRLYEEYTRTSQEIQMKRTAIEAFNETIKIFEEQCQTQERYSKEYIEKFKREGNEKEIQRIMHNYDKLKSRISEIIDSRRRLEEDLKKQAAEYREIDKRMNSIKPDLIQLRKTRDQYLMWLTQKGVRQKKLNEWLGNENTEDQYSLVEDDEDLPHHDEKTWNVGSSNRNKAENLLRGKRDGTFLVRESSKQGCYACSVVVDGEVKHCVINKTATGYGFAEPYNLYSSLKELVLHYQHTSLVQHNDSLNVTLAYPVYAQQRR
T1 sequence (P42338 whole entry, canonical isoform): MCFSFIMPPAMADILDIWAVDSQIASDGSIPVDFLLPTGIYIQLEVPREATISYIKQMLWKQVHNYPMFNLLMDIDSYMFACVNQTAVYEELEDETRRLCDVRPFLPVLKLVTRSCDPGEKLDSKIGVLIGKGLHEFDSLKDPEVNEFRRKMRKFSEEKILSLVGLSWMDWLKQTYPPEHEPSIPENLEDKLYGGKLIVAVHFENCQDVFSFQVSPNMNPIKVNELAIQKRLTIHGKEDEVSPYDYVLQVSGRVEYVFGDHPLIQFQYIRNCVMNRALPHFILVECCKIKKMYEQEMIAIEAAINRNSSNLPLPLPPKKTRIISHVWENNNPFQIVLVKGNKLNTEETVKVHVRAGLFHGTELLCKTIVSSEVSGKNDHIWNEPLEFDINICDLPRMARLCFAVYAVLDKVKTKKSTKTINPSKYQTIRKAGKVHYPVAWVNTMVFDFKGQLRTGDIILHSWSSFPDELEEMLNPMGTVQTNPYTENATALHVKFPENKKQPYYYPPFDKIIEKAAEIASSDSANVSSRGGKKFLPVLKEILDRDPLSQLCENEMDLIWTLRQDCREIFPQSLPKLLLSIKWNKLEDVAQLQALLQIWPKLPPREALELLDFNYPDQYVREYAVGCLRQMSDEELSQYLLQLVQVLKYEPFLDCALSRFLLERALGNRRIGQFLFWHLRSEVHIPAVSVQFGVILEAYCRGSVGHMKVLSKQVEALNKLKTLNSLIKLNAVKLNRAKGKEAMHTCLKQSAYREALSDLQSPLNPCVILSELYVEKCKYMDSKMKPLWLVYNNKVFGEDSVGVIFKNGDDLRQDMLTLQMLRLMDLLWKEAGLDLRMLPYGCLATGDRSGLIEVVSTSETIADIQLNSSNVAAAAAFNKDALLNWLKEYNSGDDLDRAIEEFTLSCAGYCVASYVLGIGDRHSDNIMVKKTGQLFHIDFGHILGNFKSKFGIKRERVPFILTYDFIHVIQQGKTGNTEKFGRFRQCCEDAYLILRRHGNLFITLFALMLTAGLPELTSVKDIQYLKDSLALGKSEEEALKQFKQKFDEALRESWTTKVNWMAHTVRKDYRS
T1 sequence (P27986 whole entry partner, canonical isoform): as the sequence (P27986 whole entry partner, canonical isoform) above

IC50 [3]: > 4000 nM
IC50 [5]: > 10000 nM
IC50 ([6]; read-out: IC50, IFNγ): 9.54 nM
IC50 ([6]; read-out: IC50, IL2): 20.6 nM
IC50 ([6]; read-out: IC50, TNFα): 24 nM
inhibition of PDGF induced AktS473 phosphorylation ([7]; at 10 μM, 3T3 fibroblasts): No inhibition
IC50 ([7]; read-out: Cellular IC50 PI3K alpha (PDGF induced pAKT in 3T3 fibroblasts)): > 10000 nM
Compound: CC[C@H](Nc1ncnc2[nH]cnc12)c1oc2ccccc2c(=O)c1-c1cccc(F)c1 [Compound A1, (S)-2-(1-(9H-purin-6-ylamino)propyl)-3-(3-fluorophenyl)-4H-chromen-4-one]
caspase-3 activity [1]: dose-dependent induction
EC50 ([2]; 10% FBS media): < 700 nM
EC50 ([2]; serum-free medium): < 100 nM
histological analysis of joints at study end ([4]; 15 mg/kg): complete structural preservation
individual and summed histopathological scores for knee and ankle ([4]; 15 mg/kg/BID): significant reduction
reduction of knee and ankle swelling ([4]; rat CIA model, dosed therapeutically, oral): significant efficacy
